Results: patent US20230348852A1, “METHODS AND COMPOSITIONS FOR OCULAR CELL THERAPY” (NOVARTIS AG, priority 2020, published 2023)
“Also recorded” adds a separate entry of the source.

Columns and labels:
[1] = test system: Salmonella typhimurium (TA98 and TA100); assay: Bacterial reverse mutation assay (6-well Ames screen); assay type: cell-based; settings: TA98 and TA100, absence or presence of rat liver S-9 mix, maximum concentration 500 µg/well
Experimental: A Bacterial Reverse Mutation Assay (“Ames Test”) was performed to evaluate the mutagenic potential of a LATS inhibitor by its effects on one or more histidine-requiring strains of Salmonella typhimurium (TA98 and TA100.) in the absence and presence of a liver metabolizing system.
The 6-well plate Ames test is a miniaturized screening version of the original test using smaller volumes and test item amounts, see e.g. P.A. Escobar et al. (2013), Mut. Res. 752, 99-118. The highest concentration of 500 µg/well used in this 6-well Ames screen corresponds to about the top concentration of […] in the standard Ames test. Liver S-9 mix from male rats induced with Aroclor 1254 was added as a 5% S-9 mix to the test system. […] Standard vehicle used was DMSO.
The test article was regarded positive in this assay if this criterion is met, otherwise it was regarded as negative.

[2] = test system: human lymphoblastoid TK6 cells; assay: In vitro TK6 micronucleus assay; assay type: cell-based; settings: for Conclusion TK6 MNT screen result: 30+0 hour -S-9 up to limit of cytotoxicity, 3+27 hours +S-9 up to 1 mM
Experimental: An in vitro TK6 Micronucleus Assay was performed to evaluate the clastogenic and aneugenic potential of a LATS inhibitor by its effects on the frequency of micronuclei in cultured human lymphoblastoid TK6 cells treated for 30 hours with no recovery in the absence of an Aroclor-induced rat liver metabolizing system (S-9) (30+0 hour -S-9) and for 3 hours in the presence of S-9 with 27 hours of recovery (3+27 hours +S-9).
TK6 cells were cultured in HEPES-buffered RPMI 1640 medium with GlutaMAXTM-1 including 10% (v/v) heat inactivated foetal calf serum, 100 Units/mL/100 µg/mL penicillin / streptomycin. Liver S-9 mix from male rats induced with Aroclor 1254 was added as a 10% S-9 mix to achieve a final concentration of 1% in the test system. […] Standard vehicle used was DMSO.
For valid data, the test item was considered to induce clastogenic and/or aneugenic events if: • A statistically significant increase in the frequency of micronucleated mononucleate (MNMON) cells at one or more concentrations was observed • An incidence of MNMON cells at such a concentration exceeded the normal range in both replicate cultures was observed • A concentration-related increase in the proportion of MNMON cells was observed (positive trend test).
The test item was considered positive in this assay if all of the above criteria were met. The test item was considered negative in this assay if none of the above criteria were met.

[3] = test system: human limbal stem cells; assay: Human limbal stem cell population expansion and measurement (expansion factor, p63alpha-positive cells); assay type: cell-based; settings: 10 micromolar in XVIVO15 medium, two passages; for Expansion factor: ratio of expanded population to seeded cells; for Percentage of p63a-positive cells: share of Sytox Orange-positive nuclei expressing p63alpha
Experimental: Cells were cultured at 37° C. in 5% CO2.
For each compound, two sets of cultures were generated. A first set of cultures was fixed in 4% PFA for 20 minutes at room temperature after cells isolated from the cornea had attached to the cell culture dish (typically 24 h after cell plating). A second set of cultures was fixed in 4% PFA for 20 minutes at room temperature after being cultured for two passages. Cells were passaged when they reached 90-100% confluence.
In order to observe that the expanded cell population expressed p63alpha, this was measured by immunohistochemistry as follows. The fixed cell cultures were permeabilized and blocked in a blocking solution of 0.3% Triton X-100 (Sigma-Aldrich) and 3% donkey serum in PBS for 30 minutes. Cells were then labeled with primary antibody in the blocking solution for 12 hours at 4° C. Primary antibody used was p63alpha from Cell Signalling. Samples were washed in PBS three times and donkey-raised secondary antibody Alexa Fluor 488 (Molecular Probes) at 1:500 dilution were applied for 30 minutes at room temperature. Cell nuclei were then labeled in a solution of 0.5 micromolar of Sytox Orange (ThermoFisher) in PBS for 5 minutes at room temperature.
To evaluate the percentage of p63alpha-positive cells, the number of cells labeled by the anti-p63alpha antibody was counted and the total number of cells was determined by counting the number of nuclei stained by Sytox Orange. The proportion of p63alpha-positive cells was then determined by calculating the percentage of Sytox-orange-positive nuclei that also expressed p63alpha.
To evaluate cell expansion ratios, nuclei were counted using a Zeiss LSM 880 confocal microscope. The expansion factor was then determined by calculating the ratio of the expanded population of cells to population of seeded cells.

[4] = test system: human limbal stem cells; assay: Human limbal stem cell population expansion and immunohistochemical observation of p63alpha phenotype; assay type: cell-based; settings: for colony formation and p63alpha expression: 10 micromolar, 6 days after isolation without passaging, DMSO as negative control
Experimental: Cells were first cultured at 37° C. in 5% CO2 for 6 days after isolation without passaging (FIGS. 2A, 2B and 2C).
To evaluate the ability of the compounds to enable LSC expansion after two passages, LSCs were passaged and cultured for two weeks in the presence of compound example 3 to enable expansion (FIG. 2D). Limbal stem cells (LSCs) were passaged by treating cultures with Accutase for 10 minutes at 37° C., rinsing the cell suspension by centrifugation and plating cells in fresh LSC culture medium supplemented with LATS inhibitor compound example 3.
In order to observe that the expanded cell population expressed p63alpha, this was measured by immunohistochemistry as follows. Cell cultures were fixed with 4% PFA for 20 minutes, permeabilized and blocked in a blocking solution of 0.3% Triton X-100 (Sigma-Aldrich) and 3% donkey serum in PBS for 30 minutes. Cells were then labeled with primary antibody in the blocking solution for 12 hours at 4° C. Primary antibody used was p63alpha from Cell Signalling. Samples were washed in PBS three times and donkey-raised secondary antibody Alexa Fluor 488 (Molecular Probes) at 1:500 dilution were applied for 30 minutes at room temperature. Cells were counter-stained with a human nuclear antigen antibody (Millipore) at a 1:500 dilution in order to label all cells in the culture and confirm their human identity. […] Fluorescence was observed using a Zeiss LSM 880 confocal microscope.

[5] = test system: YAP; assay: Intracellular YAP distribution by immunohistochemistry in LSCs exposed to LATS inhibitors; assay type: cell-based, human; settings: 10 micromolar, 24 hours, compared with DMSO control
Experimental: Cells were cultured under these conditions for 24 hours at 37° C. in 5% CO2.
To measure the effect of the LATS inhibitors on the downstream target YAP, intracellular YAP distribution was analyzed by immunohistochemistry. Cell cultures were fixed with 4% PFA for 20 minutes, permeabilized and blocked in a blocking solution of 0.3% Triton X-100 (Sigma-Aldrich) and 3% donkey serum in PBS for 30 minutes. Cells were then labeled with primary antibody in the blocking solution for 12 hours at 4° C. Primary antibody used was anti-YAP from Santa Cruz Biotechnology. Samples were washed in PBS three times and donkey-raised secondary antibody Alexa Fluor 488 (Molecular Probes) at 1:500 dilution were applied for 30 minutes at room temperature. […] Fluorescence was observed using a Zeiss LSM 880 confocal microscope.

[6] = test system: phospho-YAP (ser127); assay: YAP phosphorylation by Western blot in LSCs exposed to LATS inhibitors; assay type: cell-based, human; settings: 10 micromolar, 1 hour, DMSO as negative control
Experimental: The medium was then replaced by fresh limbal epithelium cell culture medium (DMEM F12 supplemented with 10% human serum and 1.3 mM calcium chloride) supplemented with LATS inhibitor compound example no. […] Cells were cultured under these conditions for 1 hour at 37° C. in 5% CO2.
To measure the effect of the LATS inhibitors on the downstream target YAP, the YAP phosphorylation levels were measured by western blot as follows. The cell pellets were obtained by trypsin dissociation and centrifugation and washed with PBS. The pellets were lysed with 30 microlitres of RIPA lysis buffer containing protease inhibitor cocktail (Life Technologies) for 30 minutes, with vortexing every 10 minutes. The cell debris were then pelleted at 4° C. for 15 minutes at 14 k rpm and the protein lysate was collected. Protein concentration was quantified using a micro BCA kit (Pierce). Fifteen micrograms of total protein was loaded in each well of 4-20% TGX gels (BioRad) and Western blotting was performed according to the manufacturer’s instructions. […] Membranes were stained with HRP-conjugated secondary antibodies, rinsed and imaged using a ChemiDoc system (Biorad) according to the manufacturer’s instructions.

[7] = +S-9, 3+27 hours, 337.0 µg/mL (approximately 1 mM)
[8] = +S-9, any concentration up to 337.0 µg/mL
[9] = -S-9, any concentration up to 40.00 µg/mL

Row | Structure (SMILES) | AMES screen result [1] | Conclusion TK6 MNT screen result ([2]; listed as dimethyl(3-methyl-3-{[2-(pyridin-4-yl)pyrido[3,4-d]pyrimid in-4-yl]amino}butyl)a) | Conclusion TK6 MNT screen result ([2]; listed as dimethyl(3-methyl-3-{[2-(pyridin-4-yl)pyrido[3,4-d]pyrimidin-4-yl]amino}butyl)am) | cytotoxicity [2, 7] [%] | increases in micronucleated mononucleate (MNMON) cells [2, 8] | cytotoxicity ([2]; -S-9, 30 hours, 40.00 µg/mL) [%] | increases in micronucleated mononucleate (MNMON) cells [2, 9] | Expansion factor [3] | Percentage of p63a-positive cells [3] [%] | colony formation and p63alpha expression [4] | cell population expansion and p63alpha expression after passaging ([4]; passaged and cultured for two weeks in the presence of the compound) | YAP immunostaining in the nucleus of LSCs [5] | YAP phosphorylation levels in human LSCs (Western blot) [6] | YAP phosphorylation levels in human LSCs (Western blot) ([6]; listed as ex. 3) | YAP phosphorylation levels in human LSCs (Western blot) ([6]; listed as ex. 4) | Conclusion TK6 MNT screen result [2]
1 | CN(C)CCC(C)(C)Nc1nc(-c2ccncc2)nc2cnccc12 [Example 5, Dimethyl(3-methyl-3-{[2-(pyridin-4-yl)pyrido[3,4-d]pyrimidin-4-yl]amino}butyl)amine] | did not show evidence of a mutagenic potential; also recorded: “negative” | “negative” | did not induce micronuclei | 39 | No statistically significant (p≤0.05) increases | 58 | No statistically significant (p≤0.05) increases | – | – | – | – | – | – | – | – | –
2 | CC(C)(O)CC(C)(C)Nc1nc(-c2ccncc2)nc2cnccc12 [Example 3, 2,4-dimethyl-4-{[2-(pyridin-4-yl)pyrido[3,4-d]pyrimidin-4-yl]amino}pentan-2-ol] | – | – | – | – | – | – | – | 2029 | 92 | formed colonies and expressed p63alpha | enabled cell population expansion and the formation of confluent cultures expressing p63alpha | stronger in the nucleus | reduction in YAP phosphorylation levels | induce YAP dephosphorylation in LSCs within one hour | – | –
3 | Cc1n[nH]cc1-c1nc(NC2(C)CC2)c2ccncc2n1 [Example 4, 2-(3-methyl-1H-pyrazol-4-yl)-N-(1-methylcyclopropyl)pyrido[3,4-d]pyrimidin-4-amine] | – | – | – | – | – | – | – | 1205 | 89 | formed colonies and expressed p63alpha | – | stronger in the nucleus | reduction in YAP phosphorylation levels | – | induce YAP dephosphorylation in LSCs within one hour | –
4 | Cc1n[nH]cc1-c1nc(NC(C)(C)CCN(C)C)c2ccncc2n1 [Example 6, N^1,N^1,3-trimethyl-N^3-(2-(3-methyl-1H-pyrazol-4-yl)pyrido[3,4-d]pyrimidin-4-yl)butane-1,3-diamine] | did not show evidence of a mutagenic potential; also recorded: “negative” | – | – | 33 | No statistically significant (p≤0.05) increases | 57 | No statistically significant (p≤0.05) increases | – | – | – | – | – | – | – | – | did not induce micronuclei; also recorded: “negative”
